The results in this text go back to PMC8113490, “Androgen signaling uses a writer and a reader of ADP-ribosylation to regulate protein complex assembly” (Nature Communications, 2021).

Experiment [1] concerns the target T1, Parp7 (Homo sapiens, UniProt Q7Z3E1).
T1 construct: gene TIPARP; N-terminal His6-T7-tagged Parp7 expressed in Sf21 insect cells
T1 sequence (Q7Z3E1 1-657): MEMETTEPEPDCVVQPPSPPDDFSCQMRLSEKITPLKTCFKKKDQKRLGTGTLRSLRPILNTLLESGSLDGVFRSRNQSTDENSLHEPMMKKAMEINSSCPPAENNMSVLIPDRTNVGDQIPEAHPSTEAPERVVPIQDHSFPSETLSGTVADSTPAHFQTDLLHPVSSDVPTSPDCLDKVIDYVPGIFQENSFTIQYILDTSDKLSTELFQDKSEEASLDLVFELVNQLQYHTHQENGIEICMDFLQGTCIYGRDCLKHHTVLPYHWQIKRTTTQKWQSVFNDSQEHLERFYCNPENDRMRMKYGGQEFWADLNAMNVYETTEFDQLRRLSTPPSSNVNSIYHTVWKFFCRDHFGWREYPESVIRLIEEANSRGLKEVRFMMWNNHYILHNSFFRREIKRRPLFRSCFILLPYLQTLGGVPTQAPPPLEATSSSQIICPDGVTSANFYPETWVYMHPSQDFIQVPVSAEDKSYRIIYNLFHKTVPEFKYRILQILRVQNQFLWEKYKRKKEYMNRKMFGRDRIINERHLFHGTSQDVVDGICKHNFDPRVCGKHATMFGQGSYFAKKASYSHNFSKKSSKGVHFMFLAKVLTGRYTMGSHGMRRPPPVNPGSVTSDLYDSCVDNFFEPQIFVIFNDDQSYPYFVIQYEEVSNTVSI
Nature of the experiment: in vitro ADP-ribosylation of AR and automodification with recombinant Parp7 and NAD+. The class given is biochemical.

For experiment [2], the target named is Flag-AR 4CG (C125, 290, 327, 406G) (human) (UniProt P10275). Nature of the experiment: co-IP; AR IP from PC3M/HA-Parp7 cells stably expressing Flag-tagged WT AR or Cys-to-Gly mutants, treated +R1881; probed for AR, ADP-ribosylation, Dtx3L and Parp9.
Flag-AR 4CG (C125, 290, 327, 406G) (human), sequence (P10275 whole entry C125G/C290G/C327G/C406G): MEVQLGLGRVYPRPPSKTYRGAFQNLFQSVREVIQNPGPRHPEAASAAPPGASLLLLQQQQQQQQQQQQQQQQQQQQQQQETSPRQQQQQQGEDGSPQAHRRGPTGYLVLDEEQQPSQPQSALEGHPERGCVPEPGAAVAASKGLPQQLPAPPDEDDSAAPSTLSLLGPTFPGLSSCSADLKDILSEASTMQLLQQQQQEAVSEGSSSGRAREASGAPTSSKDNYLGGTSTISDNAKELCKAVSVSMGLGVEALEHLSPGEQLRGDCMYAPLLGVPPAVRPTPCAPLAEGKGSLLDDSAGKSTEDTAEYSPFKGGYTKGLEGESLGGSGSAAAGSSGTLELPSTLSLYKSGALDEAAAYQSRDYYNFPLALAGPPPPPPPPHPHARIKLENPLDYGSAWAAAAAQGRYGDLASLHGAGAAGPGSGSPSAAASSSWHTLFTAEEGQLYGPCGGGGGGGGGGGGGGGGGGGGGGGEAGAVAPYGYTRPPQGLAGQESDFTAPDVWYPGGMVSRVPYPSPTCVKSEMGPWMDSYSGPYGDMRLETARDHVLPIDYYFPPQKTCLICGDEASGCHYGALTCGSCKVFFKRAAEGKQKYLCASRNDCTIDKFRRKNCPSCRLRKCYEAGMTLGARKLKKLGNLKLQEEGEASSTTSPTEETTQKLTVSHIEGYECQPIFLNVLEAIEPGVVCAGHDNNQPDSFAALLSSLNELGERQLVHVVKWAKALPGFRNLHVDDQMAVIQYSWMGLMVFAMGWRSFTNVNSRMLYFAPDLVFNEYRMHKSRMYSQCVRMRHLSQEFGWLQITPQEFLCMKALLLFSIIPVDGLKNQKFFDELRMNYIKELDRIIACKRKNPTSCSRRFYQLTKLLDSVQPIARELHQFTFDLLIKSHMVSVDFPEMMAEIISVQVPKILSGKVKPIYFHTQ

Consider `NC(=O)c1ccc[n+]([C@@H]2O[C@H](COP(=O)([O-])OP(=O)(O)OC[C@H]3O[C@@H](n4cnc5c(N)ncnc54)[C@H](O)[C@@H]3O)[C@@H](O)[C@H]2O)c1` [NAD^+], for which the “in vitro ADP-ribosylation of AR and automodification with recombinant Parp7 and” value in experiment [1] was “Combining recombinant Parp7, NAD^+, and bead-immobilized AR reconstituted ADP-ribosylation”.
Parp9 (enzyme): the complex formation, percent of WT in experiment [2] was 50 % of WT.
